# Source: patent US7150974B1, “Parathyroid hormone receptor binding method” (The General Hospital Corporation, priority 1991, dated 2006)
# How the values were obtained:
# [1] = molecular target: T1, rat bone PTH/PTHrP receptor (Rattus norvegicus, UniProt P25961, E586G); test: Radioreceptor assay, COS cells expressing rat bone PTH/PTHrP receptor (R15B); type: binding
# T1 construct: expressed in transfected cells; host or cells: COS / COS-7 cells, transient, plasmid R15B (pcDNA I)
# T1 sequence (P25961 27-591 E586G): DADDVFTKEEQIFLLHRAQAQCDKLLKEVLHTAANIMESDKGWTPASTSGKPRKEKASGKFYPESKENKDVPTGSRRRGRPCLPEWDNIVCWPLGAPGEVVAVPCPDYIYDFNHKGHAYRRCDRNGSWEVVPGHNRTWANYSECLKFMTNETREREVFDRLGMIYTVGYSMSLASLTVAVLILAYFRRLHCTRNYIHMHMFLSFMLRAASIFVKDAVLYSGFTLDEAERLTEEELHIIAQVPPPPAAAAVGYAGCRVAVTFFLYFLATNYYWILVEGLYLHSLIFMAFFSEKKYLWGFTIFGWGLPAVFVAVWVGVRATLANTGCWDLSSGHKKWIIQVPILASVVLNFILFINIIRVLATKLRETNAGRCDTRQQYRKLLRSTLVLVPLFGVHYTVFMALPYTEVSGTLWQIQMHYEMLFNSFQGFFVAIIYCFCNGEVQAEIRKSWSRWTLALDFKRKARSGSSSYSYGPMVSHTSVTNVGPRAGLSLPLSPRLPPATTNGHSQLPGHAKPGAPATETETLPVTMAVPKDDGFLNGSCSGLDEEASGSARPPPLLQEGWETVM
# Protocol: In brief, the labeled peptide was dissolved in 0.1% trifluoracetic acid (TFA), applied to a C18 Sep-pak cartridge (Waters Associates, Inc., Milford, Mass.) and eluted with a solution of 60% acetonitrile in 0.1% TFA. After lyophilization, the radioligand then was applied to C18-μBondapak column (3.9 mm×30 cm. Waters Associates) and eluted over 30 min with a linear gradient of 30-50% acetonitrile-0.1% TFA at a flow rate of 2 ml/min.
# COS-7 cells were grown in 15 cm plates in DMEM, 10% heat-inactivated […], 10 mg/L gentamycin until 80-90% confluent. Twenty-four hours after transfection by the DEAE/Dextran method (Sambrook et al., supra), with 1-2 μg of plasmid DNA, the cells were trypsinized and replated in multiwell plastic dishes (16 or 35 mm diameter, Costar, Cambridge, Mass.) at a cell concentration of 5×10^4 cells/cm^2). […] After continuing culture for another 48 h, radiorecepter assays were performed. The culture medium was replaced with buffer containing 50 mM Tris-HCL (pH 7.7), 100 mM NaCl, 2 mM CaCl2, 5 mM KCL, 0.5% heat-inactivated fetal bovine serum (GIBCO), and 5% heat-inactivated horse serum (KC Biological Inc., Lenexa, Kans.) immediately before studies were initiated.
# Incubations were terminated by aspirating the buffer, and repeatedly (×3) washing the culture dishes, containing the adherent cells with chilled 0.9% NaCl solution, over a 15 sec period. Cell-bound radioactivity was recovered by the sequential addition (×3) of 1 N NaOH (200 μl) to each well. After 30 min at room temperature, the NaOH was transferred to a glass tube. A second and third extraction with 1 N NaOH (200 μl) were combined with the first, and the total radioactivity was counted in a γ-spectrometer (Packard Instruments, Downers Grove, Ill.).
# [2] = molecular target: T2, opossum kidney PTH/PTHrP receptor clone, OK-H (Didelphis virginiana, UniProt P25107, I132F/S86P); test: cAMP accumulation, COS cells expressing OK-H; type: cell-based; details: FIG. 16
# T2 construct: expressed in transfected cells; host or cells: COS cells, transient, plasmid OK-H (pcDNA I)
# Protocol: Intracellular cAMP accumulation was measured as described previously (Abou-Samra et al., J. Biol. Chem. 262:1129, 1986). Cells in 24-well plates were rinsed with culture medium containing 0.1% BSA and 2 mM IBMX. The cells were then incubated with PTH or PTHrP for 15 min. at 37° C. The supernatant was removed and the cells immediately frozen by placing the whole plate in dry ice powder. Intracellular cAMP was extracted by thawing the cells in 1 ml of 50 mM HCl and analyzed by a specific radioimmunoassay using an anti-cAMP antibody (e.g., Sigma, St. Louis, Mo.). A cAMP analog (2′-O-monosuccinyl-adenosine 3′:5′-cyclic monophosphate tyrosyl methyl ester, obtained from Sigma) which was used a tracer for cAMP was iodinated by the chloramine T method. Free iodine was removed by adsorbing the iodinated cAMP analog onto a C18 Sep-pak cartridge (Waters, Milford, Mass.). After washing with dH2O, the iodinated cAMP analog was eluted from the Sep-pak Cartridge with 40% acetonitrille (ACN) and 0.1% trifluoroacetic acid (TFA). The iodinated cAMP analog was lyophilized, reconstituted in 1 ml 0.1% TFA, and injected into a C18 reverse phase HPLC column (Waters). […] The supernatant was removed and the bound radioactivity was counted in a γ-counter (Micromedic). Standard curves were calculated using the four-parameter RIA program supplied by Micromedic. […]
# T2 sequence (P25107 other isoform, or with tags, fused parts or gaps S86P/I132F): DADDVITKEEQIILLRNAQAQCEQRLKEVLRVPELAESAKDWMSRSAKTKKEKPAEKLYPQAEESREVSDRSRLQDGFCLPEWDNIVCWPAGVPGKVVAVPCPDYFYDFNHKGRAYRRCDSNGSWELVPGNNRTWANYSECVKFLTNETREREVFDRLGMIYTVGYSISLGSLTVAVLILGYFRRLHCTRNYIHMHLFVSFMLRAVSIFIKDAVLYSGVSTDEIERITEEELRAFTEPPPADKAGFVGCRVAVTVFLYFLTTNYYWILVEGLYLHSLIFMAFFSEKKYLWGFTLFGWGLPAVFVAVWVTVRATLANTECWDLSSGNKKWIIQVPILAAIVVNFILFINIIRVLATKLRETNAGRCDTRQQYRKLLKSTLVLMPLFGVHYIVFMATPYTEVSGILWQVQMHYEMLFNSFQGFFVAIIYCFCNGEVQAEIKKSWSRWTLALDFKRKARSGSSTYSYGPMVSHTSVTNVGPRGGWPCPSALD
substance,measurement,setting,value
"[Nle^8,18, Tyr^34]bPTH(1-34)amide",inhibition of 125I-PTHrP binding by competitor,"[1]; COS cells expressing R15B, FIG. 13",inhibited
same,specific binding of radiolabelled ligand,"[1]; radiolabelled ligand ~200,000 cpm, COS-7 cells expressing R15B",8.1 ± 3.5%
same,cAMP accumulation,[2],increase cAMP accumulation
